Data taken from paper PMC4823997 (Journal of medicinal chemistry, 2015).
Where two headings read alike, the source gives them in different places.

Assays:
Cytotoxicity assay [1] = assay type: cell-based, human; settings: human, CEM cells (T-lymphoblast leukemia)
Cytotoxicity assay [2] = assay type: cell-based; settings: human, TZM-bl cells
hCXCR4 = hCXCR4 (Homo sapiens, UniProt P61073); experiment: Radioligand [125I]SDF-1α binding to hCXCR4-transfected HEK293 membrane; settings: for fold decrease in CXCR4 binding affinity compared to compound 18: relative to compound 18; for fold increase in CXCR4 binding affinity compared to compound 4: relative to compound 4; for fold decrease in CXCR4 binding compared to compound 25: relative to compound 25
hCXCR4, sequence (P61073 whole entry): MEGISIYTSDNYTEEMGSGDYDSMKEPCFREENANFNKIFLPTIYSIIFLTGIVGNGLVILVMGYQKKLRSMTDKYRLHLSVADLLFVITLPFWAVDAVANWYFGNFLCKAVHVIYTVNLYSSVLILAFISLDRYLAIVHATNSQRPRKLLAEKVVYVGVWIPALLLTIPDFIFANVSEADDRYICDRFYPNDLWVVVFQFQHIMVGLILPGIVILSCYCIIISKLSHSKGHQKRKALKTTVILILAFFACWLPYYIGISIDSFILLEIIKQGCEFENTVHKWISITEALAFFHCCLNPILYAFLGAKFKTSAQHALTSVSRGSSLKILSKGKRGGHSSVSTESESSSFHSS

HIV-1 IIIB = experiment: Luciferase activity assay of HIV-1 infectivity in TZM-bl cells; assay type: cell-based; settings: read-out: Anti-HIV EC50
CEM cells = experiment: Cytotoxicity assay; assay type: cell-based, human; settings: for CC50: read-out: Cytotoxicity CC50 CEM, CEM cells, 72 h
TZM-bl cells = experiment: Cytotoxicity assay; assay type: cell-based; settings: for CC50: read-out: Cytotoxicity CC50 TZM-bl, TZM-bl cells, 72 h
[3] = TZM-bl cells, HIV-1 IIIB, M.O.I. 1

Compound | CC50 at 72 h (Cytotoxicity assay [1]) | selectivity ratio at 72 h (Cytotoxicity assay [1]) | CC50 at 72 h (Cytotoxicity assay [2]) | selectivity ratio at 72 h (Cytotoxicity assay [2]) | also measured
c1nc2c(NCc3ccc(CNCCCNC4CCCCC4)cc3)nc(N3CCNCC3)nc2[nH]1 [Compound 18, N-Cyclohexyl-N′-{4-[(2-piperazin-1-yl-9H-purin-6-ylamino)-methyl]-benzyl}-propane-1,3-diamine] | > 50 µM | > 25000 | > 50 µM | > 25000 | –
Cn1cnc2c(NCc3ccc(CNCCCNC4CCCCC4)cc3)nc(N3CCNCC3)nc21 [Compound 19, N-Cyclohexyl-N′-{4-[(9-methyl-2-piperazin-1-yl-9H-purin-6-ylamino)-methyl]-benzyl}-propane-1,3-diamine] | 20.2 ± 1.5 µM | 5940 | 18.6 ± 2 µM | 5470 | fold decrease in CXCR4 binding affinity compared to compound 18 (hCXCR4): 4−5 fold
COc1ccc2nc(NCc3ccc(CNCCCNC4CCCCCC4)cc3)nc(NC3CCNCC3)c2c1 [Compound 12, N^2-{4-[(3-Cycloheptylamino-propylamino)-methyl]-benzyl}-6-methoxy-N^4-piperidin-4-yl-quinazoline-2,4-diamine] | 6.5 ± 1.1 µM | 153 | 21.7 ± 7 µM | 509 | fold increase in CXCR4 binding affinity compared to compound 4 (hCXCR4): 4−5 fold
c1cc(CN2CCCNCCNCCCNCC2)ccc1CN1CCCNCCNCCCNCC1 [AMD3100, reference compound] | – | – | – | – | EC50 (HIV-1 IIIB; Human immunodeficiency virus 1, IIIB, TZM-bl): 0.0666 ± 0.0231 µM
COc1cc2nc(NCc3ccc(CNCCCNC4CCCCC4)cc3)nc(NC3CCNCC3)c2cc1OC [Compound 11, N^2-{4-[(3-Cyclohexylamino-propylamino)-methyl]-benzyl}-6,7-dimethoxy-N^4-piperidin-4-yl-quinazoline-2,4-diamine] | 17.5 ± 2.4 µM | 806 | 23.1 ± 7 µM | 1060 | –
COc1cc2nc(NCc3ccc(CNCCCNC4CCCCCC4)cc3)nc(NC3CCNCC3)c2cc1OC [Compound 14, N^2-{4-[(3-Cycloheptylamino-propylamino)-methyl]-benzyl}-6,7-methoxy-N^4-piperidin-4-yl-quinazoline-2,4-diamine] | – | – | – | – | EC50 (HIV-1 IIIB; [3]): 0.0484 ± 0.0034 µM; Selective Index CC50/EC50 CEM (CEM cells): 376; CC50 (CEM cells): 18.2 ± 4.5 µM; Selective Index CC50/EC50 TZM-bl (TZM-bl cells): 399; CC50 (TZM-bl cells): 19.3 ± 0.88 µM
c1cc(CNCCCNC2CCCCC2)nc(CNc2nc(N3CCNCC3)nc3[nH]cnc23)c1 [Compound 26, N-Cyclohexyl-N′-{6-[(2-piperazin-1-yl-9H-purin-6-ylamino)-methyl]-pyridin-2-ylmethyl}-propane-1,3-diamine] | > 50 µM | > 20000 | > 50 µM | > 20000 | fold decrease in CXCR4 binding compared to compound 25 (hCXCR4): 4−10 fold
COc1cc2nc(NCc3ccc(CNCCCN4CCCCC4)cc3)nc(NC3CCNCC3)c2cc1OC [Compound 17, 6,7-Dimethoxy-N^4-piperidin-4-yl-N^2-{4-[(3-piperidin-1-yl-propylamino)-methyl]-benzyl}-quinazoline-2,4-diamine] | 17.6 ± 3 µM | 672 | 28.1 ± 1.5 µM | 1070 | –
COc1ccc2c(NC3CCNCC3)nc(NCc3ccc(CNCCCN4CCCCC4)cc3)nc2c1 [Compound 16, 7-Methoxy-N^4-piperidin-4-yl-N^2-{4-[(3-piperidin-1-yl-propy-lamino)-methyl]-benzyl}-quinazoline-2,4-diamine] | – | – | – | – | EC50 (HIV-1 IIIB; [3]): 0.027 ± 0.0042 µM; Selective Index CC50/EC50 CEM (CEM cells): 511; CC50 (CEM cells): 13.8 ± 1.9 µM; Selective Index CC50/EC50 TZM-bl (TZM-bl cells): 1193; CC50 (TZM-bl cells): 32.2 ± 0.2 µM
c1nc2c(NCc3ccc(CNCCCNC4CCCCC4)cc3)nc(N3CCC(C4CCNCC4)CC3)nc2[nH]1 [Compound 21, N-{4-[(2-[4,4′]Bipiperidinyl-1-yl-9H-purin-6-ylamino)-methyl]-benzyl}-N′-cyclohexyl-propane-1,3-diamine] | > 50 µM | > 593 | > 50 µM | > 593 | fold decrease in CXCR4 binding affinity compared to compound 18 (hCXCR4): 2−3 fold
c1nc2c(NCc3ccc(CNCCCNC4CCCCC4)cn3)nc(N3CCNCC3)nc2[nH]1 [Compound 22, N-Cyclohexyl-N′-{6-[(2-piperazin-1-yl-9H-purin-6-ylamino)-methyl]-pyridin-3-ylmethyl}-propane-1,3-diamine] | > 50 µM | > 11900 | > 50 µM | > 11900 | fold decrease in CXCR4 binding affinity compared to compound 18 (hCXCR4): 2 fold
c1nc2c(NCc3cncc(CNCCCNC4CCCCC4)c3)nc(N3CCNCC3)nc2[nH]1 [Compound 27, N-Cyclohexyl-N′-{5-[(2-piperazin-1-yl-9H-purin-6-ylamino)-methyl]-pyridin-3-ylmethyl}-propane-1,3-diamine] | > 50 µM | > 8770 | > 50 µM | > 8770 | fold decrease in CXCR4 binding compared to compound 25 (hCXCR4): 4−10 fold
COc1ccc2nc(NCc3ccc(CNCCCN4CCCCC4)cc3)nc(NC3CCNCC3)c2c1 [Compound 15, 6-Methoxy-N^4-piperidin-4-yl-N^2-{4-[(3-piperidin-1-yl-propy-lamino)-methyl]-benzyl}-quinazoline-2,4-diamine] | – | – | – | – | EC50 (HIV-1 IIIB; [3]): 0.0939 ± 0.0147 µM; Selective Index CC50/EC50 CEM (CEM cells): 196; CC50 (CEM cells): 18.4 ± 5.5 µM; Selective Index CC50/EC50 TZM-bl (TZM-bl cells): 261; CC50 (TZM-bl cells): 24.5 ± 2.5 µM
COc1ccc2nc(NCc3ccc(CNCCCNC4CCCCC4)cc3)nc(NC3CCNCC3)c2c1 [Compound 9, N^2-{4-[(3-Cyclohexylamino-propylamino)-methyl]-benzyl}-6-methoxy-N^4-piperidin-4-yl-quinazoline-2,4-diamine] | 8 ± 1.7 µM | 169 | 8.4 ± 1 µM | 177 | fold increase in CXCR4 binding affinity compared to compound 4 (hCXCR4): 4−5 fold
CN1CCN(c2nc(NCc3ccc(CNCCCNC4CCCCC4)cc3)c3ncn(C)c3n2)CC1 [Compound 20, N-Cyclohexyl-N′-(4-{[9-methyl-2-(4-methyl-piperazin-1-yl)-9H-purin-6-ylamino]-methyl}-benzyl)-propane-1,3-diamine] | 13.8 ± 1.8 µM | 2120 | 11.2 ± 2.1 µM | 1720 | fold decrease in CXCR4 binding affinity compared to compound 18 (hCXCR4): 4−5 fold
COc1ccc2c(NC3CCNCC3)nc(NCc3ccc(CNCCCNC4CCCCC4)cc3)nc2c1 [Compound 10, N^2-{4-[(3-Cyclohexylamino-propylamino)-methyl]-benzyl}-7-methoxy-N^4-piperidin-4-yl-quinazoline-2,4-diamine] | 1.6 ± 0.6 µM | 186 | 10.8 ± 3.3 µM | 1260 | fold increase in CXCR4 binding affinity compared to compound 4 (hCXCR4): 4−5 fold
CC1(C)CN2C(CSC(=NC3CCCCC3)NC3CCCCC3)=CSC2=N1 [IT1t, reference compound] | – | – | – | – | EC50 (HIV-1 IIIB; [3]): > 0.07 µM
COc1ccc2c(NC3CCNCC3)nc(NCc3ccc(CNCCCNC4CCCCCC4)cc3)nc2c1 [Compound 13, N^2-{4-[(3-Cycloheptylamino-propylamino)-methyl]-benzyl}-7-methoxy-N^4-piperidin-4-yl-quinazoline-2,4-diamine] | 6.1 ± 1.1 µM | 134 | 10.8 ± 0.8 µM | 238 | fold increase in CXCR4 binding affinity compared to compound 4 (hCXCR4): 4−5 fold
c1nc2c(NCCc3ccc(CNCCCNC4CCCCC4)cc3)nc(N3CCNCC3)nc2[nH]1 [Compound 23, N-Cyclohexyl-N′-{4-[2-(2-piperazin-1-yl-9H-purin-6-ylami-no)-ethyl]-benzyl}-propane-1,3-diamine] | – | – | – | – | fold decrease in CXCR4 binding affinity compared to compound 18 (hCXCR4): around 2 fold; EC50 (HIV-1 IIIB; [3]): 0.0031 ± 0.0007 µM; Selective Index CC50/EC50 CEM (CEM cells): 15065; CC50 (CEM cells): 46.7 ± 3.2 µM; Selective Index CC50/EC50 TZM-bl (TZM-bl cells): >16129; CC50 (TZM-bl cells): > 50 µM
